Source: ChEMBL document CHEMBL1201862, “PubChem BioAssay data set” (2004)
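In this assay, cells in 96-well plates receive the compound at five concentrations for 48 hours. Endpoints are linearly interpolated between the surrounding concentrations. GI50: concentration for 50% inhibition of growth.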 Calls of active or inactive are those of the source. Cut-off read from the data, not from the text of the source: active = GI50 up to about 1.1 µM and inactive = higher.

How the values were obtained:
Test in all cases: inhibition of tumour cell growth, NCI panel, 48 h
SK-OV-3 = system: SK-OV-3
UACC-257 = system: UACC-257
SK-MEL-5 = system: SK-MEL-5
MDA-MB-435 = system: MDA-MB-435
NCI-H226 = system: NCI-H226
OVCAR-5 = system: OVCAR-5
SNB-75 = system: SNB-75
CCRF-CEM = system: CCRF-CEM
HOP-62 = system: HOP-62
A549 = system: A549
M14 = system: M14
U-251 = system: U-251
SK-MEL-28 = system: SK-MEL-28
HT-29 = system: HT-29
NCI/ADR-RES = system: NCI/ADR-RES
HCT-15 = system: HCT-15
K562 = system: K562
NCI-H460 = system: NCI-H460
TK-10 = system: TK-10
A498 = system: A498

## COc1cc(CNc2c3ccccc3nc3ccccc23)cc(OC)c1OC
SK-OV-3
  GI50: 5.47 µM (inactive)
UACC-257
  GI50: 3.11 µM (inactive)
SK-MEL-5
  GI50: 2.72 µM (inactive)
MDA-MB-435
  GI50: 3.5 µM (inactive)
NCI-H226
  GI50: 3.15 µM (inactive)
OVCAR-5
  GI50: 3.92 µM (inactive)
SNB-75
  GI50: 4.02 µM (inactive)
CCRF-CEM
  GI50: 1.57 µM (inactive)
HOP-62
  GI50: 2.93 µM (inactive)
A549
  GI50: 3.32 µM (inactive)
M14
  GI50: 2.59 µM (inactive)
U-251
  GI50: 5.08 µM (inactive)
SK-MEL-28
  GI50: 5.04 µM (inactive)
HT-29
  GI50: 2.49 µM (inactive)
NCI/ADR-RES
  GI50: 4.16 µM (inactive)
HCT-15
  GI50: 2.97 µM
K562
  GI50: 1.32 µM (inactive)
NCI-H460
  GI50: 2.57 µM (inactive)
TK-10
  GI50: 5.53 µM (inactive)
A498
  GI50: 1.82 µM (inactive)

## Clc1ccc(CSCc2ccc(Cl)cc2Cl)c(Cl)c1
SK-OV-3
  GI50: > 100 µM (inactive)
UACC-257
  GI50: 25.6 µM (inactive)
SK-MEL-5
  GI50: 29.9 µM (inactive)
MDA-MB-435
  GI50: 41 µM (inactive)
NCI-H226
  GI50: > 100 µM (inactive)
OVCAR-5
  GI50: > 100 µM (inactive)
SNB-75
  GI50: 48.3 µM (inactive)
CCRF-CEM
  GI50: 22.2 µM (inactive)
HOP-62
  GI50: > 100 µM (inactive)
A549
  GI50: 34.3 µM (inactive)
M14
  GI50: 79.8 µM (inactive)
U-251
  GI50: 54 µM (inactive)
SK-MEL-28
  GI50: 79.6 µM (inactive)
HT-29
  GI50: 29.9 µM (inactive)
NCI/ADR-RES
  GI50: > 100 µM (inactive)
HCT-15
  GI50: 32.2 µM
K562
  GI50: 57.5 µM (inactive)
NCI-H460
  GI50: 95.9 µM (inactive)
TK-10
  GI50: > 100 µM (inactive)
A498
  GI50: 40.2 µM (inactive)

## C(=C\c1ccccc1)/C=N/c1nc2cc3sc(/N=C/C=C/c4ccccc4)nc3cc2s1
SK-OV-3
  GI50: > 100 µM (inactive)
UACC-257
  GI50: > 100 µM (inactive)
SK-MEL-5
  GI50: > 28.9 µM (inactive)
MDA-MB-435
  GI50: > 100 µM (inactive)
NCI-H226
  GI50: 0.813 µM (active)
OVCAR-5
  GI50: > 78.7 µM (inactive)
SNB-75
  GI50: > 100 µM (inactive)
CCRF-CEM
  GI50: 8.47 µM (inactive)
HOP-62
  GI50: 99.3 µM (inactive)
A549
  GI50: 12.1 µM (inactive)
M14
  GI50: > 100 µM (inactive)
U-251
  GI50: 25 µM (inactive)
SK-MEL-28
  GI50: > 100 µM (inactive)
HT-29
  GI50: 30.6 µM (inactive)
NCI/ADR-RES
  GI50: > 100 µM (inactive)
HCT-15
  GI50: 33.7 µM
K562
  GI50: 43.3 µM (inactive)
NCI-H460
  GI50: 4.16 µM (inactive)
TK-10
  GI50: > 88.9 µM (inactive)
A498
  GI50: > 42.5 µM (inactive)

## C=C(C)C(=O)O[C@@H]1C[C@@]2(C)O[C@@H]2C[C@H](O)/C(C)=C/[C@H]2OC(=O)C(=C)[C@@H]21
SK-OV-3
  GI50: > 100 µM (inactive)
UACC-257
  GI50: > 100 µM (inactive)
SK-MEL-5
  GI50: > 100 µM (inactive)
MDA-MB-435
  GI50: 59.6 µM (inactive)
NCI-H226
  GI50: > 100 µM (inactive)
OVCAR-5
  GI50: > 100 µM (inactive)
SNB-75
  GI50: > 100 µM (inactive)
CCRF-CEM
  GI50: 17.3 µM (inactive)
HOP-62
  GI50: > 100 µM (inactive)
A549
  GI50: > 100 µM (inactive)
M14
  GI50: 43.1 µM (inactive)
U-251
  GI50: > 100 µM (inactive)
SK-MEL-28
  GI50: 22.4 µM (inactive)
HT-29
  GI50: 61.5 µM (inactive)
NCI/ADR-RES
  GI50: 60.7 µM (inactive)
HCT-15
  GI50: 30.9 µM
K562
  GI50: 29 µM (inactive)
NCI-H460
  GI50: > 100 µM (inactive)
TK-10
  GI50: > 100 µM (inactive)
A498
  GI50: > 100 µM (inactive)

## CCC(=O)C(CCN1CCC2(CCCc3ccccc32)CC1)(c1ccccc1)c1ccccc1
SK-OV-3
  GI50: 3.19 µM (inactive)
UACC-257
  GI50: 2.05 µM (inactive)
SK-MEL-5
  GI50: 1.49 µM (inactive)
MDA-MB-435
  GI50: 3.49 µM (inactive)
NCI-H226
  GI50: 2.05 µM (inactive)
OVCAR-5
  GI50: 3.74 µM (inactive)
SNB-75
  GI50: 2.95 µM (inactive)
CCRF-CEM
  GI50: 1.78 µM (inactive)
HOP-62
  GI50: 3.28 µM (inactive)
A549
  GI50: 3.63 µM (inactive)
M14
  GI50: 1.87 µM (inactive)
U-251
  GI50: 2.62 µM (inactive)
SK-MEL-28
  GI50: 4.65 µM (inactive)
HT-29
  GI50: 0.993 µM (active)
NCI/ADR-RES
  GI50: 3.19 µM (inactive)
HCT-15
  GI50: 2.55 µM
K562
  GI50: 1.8 µM (inactive)
NCI-H460
  GI50: 2.52 µM (inactive)
TK-10
  GI50: 3.77 µM (inactive)
A498
  GI50: 1.98 µM (inactive)

## C[C@]12C=CC(=O)C=C1[C@@H](F)C[C@H]1[C@@H]3CC[C@](O)(C(=O)CO)[C@@]3(C)C[C@H](O)[C@@]12F
SK-OV-3
  GI50: 3.33 µM (inactive)
UACC-257
  GI50: > 100 µM (inactive)
SK-MEL-5
  GI50: > 100 µM (inactive)
MDA-MB-435
  GI50: > 100 µM (inactive)
NCI-H226
  GI50: 52.6 µM (inactive)
OVCAR-5
  GI50: > 59.6 µM (inactive)
SNB-75
  GI50: > 100 µM (inactive)
CCRF-CEM
  GI50: 0.543 µM (active)
HOP-62
  GI50: > 100 µM (inactive)
A549
  GI50: > 100 µM (inactive)
M14
  GI50: > 100 µM (inactive)
U-251
  GI50: > 100 µM (inactive)
SK-MEL-28
  GI50: > 100 µM (inactive)
HT-29
  GI50: > 100 µM (inactive)
NCI/ADR-RES
  GI50: > 100 µM (inactive)
HCT-15
  GI50: > 100 µM
K562
  GI50: > 100 µM (inactive)
NCI-H460
  GI50: > 100 µM (inactive)
TK-10
  GI50: > 100 µM (inactive)
A498
  GI50: > 100 µM (inactive)
